Experimental data from patent US3994885A, “Process for etherifying β-lactam antibiotics” (Eli Lilly and Company, priority 1975, dated 1976).
Values after ≈ are worked out from the molar mass of the structure shown.

Tests used:
Shigella sp. = assay: Gradient Plate MIC vs gram-negative microorganisms
Escherichia coli [1] = assay: Gradient Plate MIC vs gram-negative microorganisms
Klebsiella pneumoniae [2] = assay: Gradient Plate MIC vs gram-negative microorganisms
Aerobacter aerogenes = assay: Gradient Plate MIC vs gram-negative microorganisms; details: Klebsiella aerogenes
Salmonella heidelberg = assay: Gradient Plate MIC vs gram-negative microorganisms; details: Salmonella enterica
Pseudomonas aeruginosa = assay: Gradient Plate MIC vs gram-negative microorganisms
Serratia marcescens [3] = assay: Gradient Plate MIC vs gram-negative microorganisms
[4] = tested on: Penicillin Resistant Staphylococcus aureus V41; assay: Gradient Plate MIC vs penicillin resistant Staphylococcus aureus, isolate V41
[5] = tested on: Penicillin Resistant Staphylococcus aureus V32; assay: Gradient Plate MIC vs penicillin resistant Staphylococcus aureus, isolate V32
[6] = tested on: Penicillin Resistant Staphylococcus aureus V84; assay: Gradient Plate MIC vs penicillin resistant Staphylococcus aureus, isolate V84
[7] = tested on: Penicillin Resistant Staphylococcus aureus X400; assay: Gradient Plate MIC vs penicillin resistant Staphylococcus aureus, isolate X400
[8] = tested on: Penicillin Resistant Staphylococcus aureus X1.1; assay: Gradient Plate MIC vs penicillin resistant Staphylococcus aureus, isolate X1.1
Staphylococcus aureus = assay: In vitro antibiotic spectrum, disc-plate method; format: cell-based; details: read-out: Diameter of Zone of Inhibition; for zone of inhibition at 500 µg/mL: concentration 0.5 mg/ml
Bacillus subtilis = assay: In vitro antibiotic spectrum, disc-plate method; format: cell-based; details: read-out: Diameter of Zone of Inhibition; for zone of inhibition at 500 µg/mL: concentration 0.5 mg/ml (ditto)
Sarcina lutea = assay: In vitro antibiotic spectrum, disc-plate method; format: cell-based; details: Micrococcus luteus, read-out: Diameter of Zone of Inhibition; for zone of inhibition at 500 µg/mL: concentration 0.5 mg/ml (ditto)
Mycobacterium avium = assay: In vitro antibiotic spectrum, disc-plate method; format: cell-based; details: read-out: Diameter of Zone of Inhibition
Proteus vulgaris = assay: In vitro antibiotic spectrum, disc-plate method; format: cell-based; details: read-out: Diameter of Zone of Inhibition; for zone of inhibition at 500 µg/mL: concentration 0.5 mg/ml
Salmonella gallinarum = assay: In vitro antibiotic spectrum, disc-plate method; format: cell-based; details: Salmonella enterica, read-out: Diameter of Zone of Inhibition; for zone of inhibition at 500 µg/mL: concentration 0.5 mg/ml (ditto)
From the text: In the following Table III the antibiotic activity of the compounds of the invention is further illustrated by the activity shown for representative compounds as determined by the standard disc-plate method.

Escherichia coli [9] = assay: In vitro antibiotic spectrum, disc-plate method; format: cell-based; details: read-out: Diameter of Zone of Inhibition; for zone of inhibition at 500 µg/mL: concentration 0.5 mg/ml (ditto)
Klebsiella pneumoniae [10] = assay: In vitro antibiotic spectrum, disc-plate method; format: cell-based; details: read-out: Diameter of Zone of Inhibition; for zone of inhibition at 500 µg/mL: concentration 0.5 mg/ml (ditto)
Serratia marcescens [11] = assay: In vitro antibiotic spectrum, disc-plate method; format: cell-based; details: read-out: Diameter of Zone of Inhibition; for zone of inhibition at 500 µg/mL: concentration 0.5 mg/ml (ditto)
Pseudomonas solanacearum = assay: microbe, parasite or virus in culture; format: cell-based; details: Ralstonia solanacearum, read-out: Diameter of Zone of Inhibition
[12] = concentration 0.1 mg/ml (ditto)

Compound	MIC (Shigella sp.) [µg/mL]	MIC (Escherichia coli [1]) [µg/mL]	MIC (Klebsiella pneumoniae [2]) [µg/mL]	MIC (Aerobacter aerogenes) [µg/mL]	MIC (Salmonella heidelberg) [µg/mL]	MIC (Pseudomonas aeruginosa) [µg/mL]	MIC (Serratia marcescens [3]) [µg/mL]	MIC ([4]; NS = absence of serum) [µg/mL]	MIC ([4]; S = presence of serum) [µg/mL]	MIC ([5]; NS = absence of serum) [µg/mL]	MIC ([5]; S = presence of serum) [µg/mL]	MIC ([6]; NS = absence of serum) [µg/mL]	MIC ([6]; S = presence of serum) [µg/mL]	MIC ([7]; NS = absence of serum) [µg/mL]	MIC ([7]; S = presence of serum) [µg/mL]	MIC ([8]; NS = absence of serum) [µg/mL]	MIC ([8]; S = presence of serum) [µg/mL]	zone of inhibition at 500 µg/mL (Staphylococcus aureus) [mm]	zone of inhibition at 500 µg/mL (Bacillus subtilis) [mm]	zone of inhibition at 500 µg/mL (Sarcina lutea) [mm]	other results
COC1(NC(=O)C(O)c2ccccc2)C(=O)N2C(C(=O)O)=C(CSc3nnnn3C)CS[C@@H]21 (stereo partly shown) [A, 7-methoxy-7-mandelamido-3-(1-methyl-1H-tetrazole-5-ylthiomethyl)-3-cephem-4-carboxylic acid]	2 (≈ 4.06 µM)	2.5 (≈ 5.08 µM)	0.6 (≈ 1.22 µM)	0.7 (≈ 1.42 µM)	0.6 (≈ 1.22 µM)	> 200	3.4 (≈ 6.9 µM)	4.2 (≈ 8.53 µM)	6.7	4.5 (≈ 9.14 µM)	7.6	3.1 (≈ 6.29 µM)	2	16.6 (≈ 33.7 µM)	15.4	0.5 (≈ 1.02 µM)	< 0.1	–	–	–	–
COC1(NC(=O)Cn2cnnn2)C(=O)N2C(C(=O)O)=C(CSc3nnc(C)s3)CS[C@@H]21 (stereo partly shown) [C, 7-[2-(1-tetrazolyl)acetamido]-7-methoxy-3-(5-methyl-1,3,4-thiadiazol-2-ylthiomethyl)-3-cephem-4-carboxylic acid]	–	–	–	–	–	–	–	–	–	–	–	–	–	–	–	–	–	24	25	23	zone of inhibition at 500 µg/mL (Mycobacterium avium; concentration 0.5 mg/ml (ditto)): 10 mm; zone of inhibition at 500 µg/mL (Proteus vulgaris): 21 mm; zone of inhibition at 500 µg/mL (Salmonella gallinarum): 26 mm; zone of inhibition at 500 µg/mL (Escherichia coli [9]): 23 mm; zone of inhibition at 500 µg/mL (Klebsiella pneumoniae [10]): 19 mm; zone of inhibition at 500 µg/mL (Serratia marcescens [11]): 19 mm; zone of inhibition at 500 µg/mL (Pseudomonas solanacearum): 16 mm
COC1(NC(=O)Cn2cnnn2)C(=O)N2C(C(=O)O)=C(COC(C)=O)CSC21 (stereo not shown) [D, 7-[2-(1-Tetrazolyl)acetamido]:7:methoxy-3-acetoxymethyl-3-cephem-4-carboxylic acid]	–	–	–	–	–	–	–	–	–	–	–	–	–	–	–	–	–	24	24	23	zone of inhibition at 5000 µg/mL (Mycobacterium avium; concentration 5.0 mg/ml): 20 mm; zone of inhibition at 500 µg/mL (Proteus vulgaris): 18 mm; zone of inhibition at 500 µg/mL (Salmonella gallinarum): 25 mm; zone of inhibition at 500 µg/mL (Escherichia coli [9]): 20 mm; zone of inhibition at 500 µg/mL (Klebsiella pneumoniae [10]): 17 mm; zone of inhibition at 500 µg/mL (Serratia marcescens [11]): 17 mm; zone of inhibition at 500 µg/mL (Pseudomonas solanacearum): 23 mm
COC1(NC(=O)C(O)c2ccccc2)C(=O)N2C(C(=O)O)=C(CSc3nnc(C)s3)CS[C@@H]21 (stereo partly shown) [E, 7-methoxy-7-mandelamido-3-(5-methyl-1,3,4-thiadiazol-2-ylthiomethyl)-3-cephem-4-carboxylic acid]	–	–	–	–	–	–	–	–	–	–	–	–	–	–	–	–	–	–	–	–	zone of inhibition at 100 µg/mL (Staphylococcus aureus; concentration 0.1 mg/ml): 25 mm; zone of inhibition at 100 µg/mL (Bacillus subtilis; [12]): 22 mm; zone of inhibition at 100 µg/mL (Sarcina lutea; [12]): 24 mm; zone of inhibition at 1000 µg/mL (Mycobacterium avium; concentration 1.0 mg/ml): 15 mm; zone of inhibition at 100 µg/mL (Proteus vulgaris; concentration 0.1 mg/ml): 18 mm; zone of inhibition at 1000 µg/mL (Salmonella gallinarum; concentration 1.0 mg/ml): 20 mm; zone of inhibition at 100 µg/mL (Escherichia coli [9]; concentration 0.1 mg/ml): 22 mm; zone of inhibition at 100 µg/mL (Klebsiella pneumoniae [10]; [12]): 16 mm; zone of inhibition at 1000 µg/mL (Serratia marcescens [11]; concentration 1.0 mg/ml): 18 mm; zone of inhibition at 1000 µg/mL (Pseudomonas solanacearum): 16 mm
COC1(NC(=O)Cc2cccs2)C(=O)N2C(C(=O)O)=C(CSc3nnnn3C)CS[C@@H]21 (stereo partly shown) [B, 7-methoxy-7-[2-(2-thienyl)acetamido]-3-(1-methyl-1H-tetrazol-5-ylthiomethyl)-3-cephem-4-carboxylic acid]	6.6 (≈ 13.7 µM)	7.9 (≈ 16.4 µM)	0.5 (≈ 1.04 µM)	3.5 (≈ 7.25 µM)	0.9 (≈ 1.87 µM)	> 200	5.4 (≈ 11.2 µM)	1.5 (≈ 3.11 µM)	1.1	1.8 (≈ 3.73 µM)	2	0.6 (≈ 1.24 µM)	1	10 (≈ 20.7 µM)	9.5	0.4 (≈ 0.829 µM)	0.5	–	–	–	–
